# Measured values: patent US20240400572A1, “COMPOUNDS AND METHODS FOR TREATING CANCERS THAT ARE MGMT DEFICIENT REGARDLESS OF MMR STATUS” (Yale University, priority 2021, published 2024)
# How the values were obtained:
# [1] = system: linearized pUC19 plasmid DNA; assay: Melting temperature assay; format: biochemical; conditions: 100 or 500 μM for 3 h
# Description: Melting Temperature Assay. Linearized pUC19 DNA (750 ng), prepared as described above, was incubated with the indicated concentration of either MMS or KL-50 (4a) adjusted in a final volume of 18 μL in 100 mM Tris buffer (pH 7.4) for 3 h. Drug stock concentrations were made in DMSO such that each reaction contained a fixed 5% DMSO concentration. Afterwards, 1 μL each of 20× SYBR Green dye (Invitrogen) and 20× ROX reference dye (Invitrogen) was added and melting temperature analysis was run on a StepOnePlus RT PCR System (Applied Biosciences) to generate melting temperature curves.
# [2] = system: LN229 MGMT+/−, MMR+/− isogenic lines; assay: Short-term cell viability assay with ROS scavenger NAC; format: cell-based, human; conditions: pre-treated with increasing concentrations of NAC
# Description: FIGS. ZS5A-ZS5D. […] Columns, mean; error bars, SD; n=2 independent analyses. For (FIG. ZS5A) and (FIG. ZS5C), points, mean; error bars, SD; n=3 technical replicates.
# Short-term Cell Viability Assay. Cells were seeded in 96-well plates at 1000 or 2000 cells/well and allowed to adhere at 23° C. for 60 min and then incubated overnight at 37° C. Cells were treated with indicated concentrations of compounds in triplicate for 4-6 days prior to fixation with 3.7% paraformaldehyde and nuclear staining with 1 μg/mL Hoechst 33342 dye. Cells were imaged on a Cytation 3 imaging reader (BioTek) and quantified using CellProfiler software.
# LN229 MGMT− MMR− cells = assay: Anticancer activity towards LN229 human brain glioblastoma cells (nuclei count after 120 hours); format: cell-based; conditions: LN-229, LN229 quad cells, 200 μM to 0.1 uM
# Description: (§1) Exemplary compounds were evaluated for activity against LN229 human brain glioblastoma cells. Experimental procedures and results are provided elsewhere herein.
# (§2) LN229 quad cells were maintained in Dulbecco's Modified Eagle Medium (DMEM) supplemented with 10% fetal bovine serum. Cells were plated into sterile black with glass bottom 384-well plates (Cellvis) at a concentration of 1,000 cells/well (20 μL total volume) using a MultiDrop (Thermo Fisher). Then, assay plates were centrifuged at 300 rpm for 2 seconds and incubated overnight in a 37° C. 5% CO2 incubator. Compounds were prepared as 100 mM stocks in DMSO and stored protected from light at −20′C until use. Prior to compound addition, the stock solutions of compound were diluted two-fold serially in DMSO from 100 mM down to 0.05 mM in a 384-well Source plate. Vehicle control wells containing DMSO and positive control wells containing 10 mM bortezomib were also added to the Source plate. An aliquot in the amount of 40 nL of compound stock solution or DMSO vehicle was transferred from the source plate to the cell assay plate using an Echo Acoustic dispense (Beckman). Three replicate dilution curves of each compound were run on each assay plate. An aliquot in the amount of 120 nL of a 10 mM bortezomib solution was transferred to the positive control wells resulting in a final concentration of 60 μM. The final concentration of compounds ranged from 200 μM to 0.1 uM (12-point, 2-fold dilution dose response curve), and the final DMSO concentration was 0.2%.
# (§3) Assay plates were centrifuged at 500 rpm for 2 seconds and incubated for 120 hours at 37° C. in a humidified 5% CO2 incubator. Following incubation, cells were fixed with 4% paraformaldehyde and stained with DAPI for nuclei visualization. The images were acquired on the InCell 2200 high content imager (GE, now […]), and quantified using InCell Analyzer image analysis software. Z prime factor, signal-to-background and coefficient of variation were calculated for each assays plate using mean and standard deviation values of the negative (vehicle) and positive (bortezomib) control wells to ensure assay robustness. Raw cell count data for test compounds was normalized to percent viability relative to the DMSO vehicle control. Data was plotted in GraphPad Prism using a variable slope 4-parameter fit.
# LN229 MGMT− MMR+ cells = assay: as above; format: cell-based; conditions: LN-229, LN229 quad cells, 200 μM to 0.1 uM
# Description: as §1, §2, §3
# LN229 MGMT+ MMR+ cells = assay: as above; format: cell-based; conditions: LN-229, LN229 quad cells, 200 μM to 0.1 uM
# Description: as §1, §2, §3
# LN229 MGMT+ MMR− cells = assay: as above; format: cell-based; conditions: LN-229, LN229 quad cells, 200 μM to 0.1 uM
# Description: as §1, §2, §3
SMILES,change in DNA melting temperature (in words) [1],rescue of toxicity by NAC (in words) [2],IC50 (LN229 MGMT− MMR− cells),IC50 (LN229 MGMT− MMR+ cells),IC50 (LN229 MGMT+ MMR+ cells),IC50 (LN229 MGMT+ MMR− cells)
"NC(=O)c1ncn2c(=O)n(CCF)nnc12 [KL-50, 3-(2-fluoroethyl)-4-oxo-3H,4H-imidazo[4,3-d][1,2,3,5]tetrazine-8-carboxamide]",comparable changes in measured DNA melting temperature,did not result in rescue,,,,
"CNC(=O)c1ncn2c(=O)n(CCF)nnc12 [Compound I-1, 3-(2-fluoroethyl)-N-methyl-4-oxo-3H,4H-imidazo[4,3-d][1,2,3,5]tetrazine-8-carboxamide]",,,< 10 µM,10 to 20 µM,> 80 µM,> 80 µM
